From patent US7541368B2, “Pyrazoles as inhibitors of tumor necrosis factor” (Aventis Pharmaceuticals Inc., priority 2003, dated 2009)

System: TNF-alpha release in THP-1 cells
Experiment: LPS-induced TNF-alpha release in THP-1 cells
Assay type: cell-based
Conditions: Homo sapiens, THP-1, LPS-stimulated THP-1 cells; read-out: 50% inhibition in the LPS-induced TNF-alpha release in THP-1 cells assay at concentrations within the range
Procedure: The effects of compounds on TNF-alpha production by lipopolysaccharide (LPS)-stimulated […] monocytes were examined as follows.
Undifferentiated THP-1 cells were maintained in RPMI 1640 with Glutamax I containing β-mercaptoethananol (50 μM) and foetal calf serum (FCS-10%) at densities of about 1×10^6 cells per ml. For incubations without and with test reagents, cells were seeded at the indicated densities under serum-deprived (1% FCS) conditions. Compounds were dissolved in dimethylsulfoxide (DMSO-100%) and incubated with the cells to give a fmal DMSO concentration of 0.3%. Control and untreated cell samples were incubated with DMSO (0.3%).
THP-1 cells (1×10 ^6 cells/ml, total volume 150 μl) in culture medium were incubated for 1 hour (5% CO2, 37° C.) with fresh medium containing compounds or vehicle (0.1-0.3% dimethylsulfoxide). LPS (20 μg/ml) was then added to the cells and the incubation continued for a fuirther 18 hours. Cell supernatants were removed into 96 well plates for storage at −20° C.
TNF-alpha concentrations in cell supernatants were quantified by sandwich ELISA. Briefly, ELISA plates were coated overnight with 2 μg/ml of mouse anti-human TNF-alpha antibody in bicarbonate buffer (pH 9.9). After washing the wells with wash buffer (0.05% (v/v) Tween in PBS)and blocking unoccupied sites (1% BSA in wash buffer), monocyte supernatant samples or human recombinant TNF-alpha standards were added into the corresponding wells of the ELISA plate at 1:10 dilution. Biotinylated rabbit polyclonal anti-human TNF-alpha antibody (3 μg/ml) was used as the second antibody and streptavidin-horseradish peroxidase was used as the detection antibody. The peroxidase substrate is 3,3′,5,5′-tetramethylbenzidine (TMB) in the presence of hydrogen peroxide.
TNFα concentrations in supernatants from control and LPS-stimulated monocyte incubations were calculated by interpolation from a standard (log/log) curve (0.125-16 ng/ml) fitted by Excel Fit using the Activity Base software. Compounds were tested within the concentration range of 1×10^−9M to 1×10^−6M.

| IC50 [nM] | Structure (SMILES) |
| --- | --- |
| 10 to 500 | CO[C@H](C(=O)N1CCC(Cc2cccc(NC(=O)Nc3cc(C(C)(C)C)nn3-c3ccc(C)cc3)c2)CC1)c1ccccc1 [Compound A4, 1-(5-tert-Butyl-2-p-tolyl-2H-pyrazol-3-yl)-3-{3-[1-((S)-2-methoxy-2-phenyl-acetyl)-piperidin-4-ylmethyl]-phenyl}-urea] |
| 10 to 500 | Cc1ccc(-n2nc(C(C)(C)C)cc2NC(=O)Nc2cccc(CC3CCN(C(=O)c4csnn4)CC3)c2)cc1 [Compound A6, 1-(5-tert-Butyl-2-p-tolyl-2H-pyrazol-3-yl)-3-{3-[1-([1,2,3]thiadiazole-4-carbonyl)-piperidin-4-ylmethyl]-phenyl}-urea] |
| 10 to 500 | Cc1ccc(-n2nc(C(C)(C)C)cc2NC(=O)Nc2cccc(CC3CCN(C(=O)c4ccc5cnccc5n4)CC3)c2)cc1 [Compound A7, 1-(5-tert-Butyl-2-p-tolyl-2H-pyrazol-3-yl)-3-{3-[1-([1,6]naphthyridine-2-carbonyl)-piperidin-4-ylmethyl]-phenyl}-urea] |
| 10 to 500 | Cc1ccc(-n2nc(C(C)(C)C)cc2NC(=O)Nc2cccc(CC3CCN(C(=O)c4ccc5cccnc5n4)CC3)c2)cc1 [Compound A8, 1-(5-tert-Butyl-2-p-tolyl-2H-pyrazol-3-yl)-3-{3-[1-([1,8]naphthyridine-2-carbonyl)-piperidin-4-ylmethyl]-phenyl}-urea] |
| 10 to 500 | Cc1ccc(-n2nc(C(C)(C)C)cc2NC(=O)Nc2cccc(CC3CCN(C(=O)c4nccc5ccccc45)CC3)c2)cc1 [Compound A13, 1-(5-tert-Butyl-2-p-tolyl-2H-pyrazol-3-yl)-3-{3-[1-(isoquinoline-1-carbonyl)-piperidin-4-ylmethyl]-phenyl}-urea] |
| 10 to 500 | COc1cccc(C(=O)N2CCC(Cc3cccc(NC(=O)Nc4cc(C(C)(C)C)nn4-c4ccc(C)cc4)c3)CC2)c1OC [Compound A21, 1-(5-tert-Butyl-2-p-tolyl-2H-pyrazol-3-yl)-3-{3-[1-(2,3-dimethoxy-benzoyl)-piperidin-4-ylmethyl]-phenyl}-urea] |
| 10 to 500 | COc1cccc(CC(=O)N2CCC(Cc3cccc(NC(=O)Nc4cc(C(C)(C)C)nn4-c4ccc(C)cc4)c3)CC2)c1OC [Compound A22, 1-(5-tert-Butyl-2-p-tolyl-2H-pyrazol-3-yl)-3-(3-{1-[2-(2,3-dimethoxy-phenyl)-acetyl]-piperidin-4-ylmethyl}-phenyl)-urea] |
| 10 to 500 | COc1cc(OC)c(C(=O)N2CCC(Cc3cccc(NC(=O)Nc4cc(C(C)(C)C)nn4-c4ccc(C)cc4)c3)CC2)c(OC)c1 [Compound A24, 1-(5-tert-Butyl-2-p-tolyl-2H-pyrazol-3-yl)-3-{3-[1-(2,4,6-trimethoxy-benzoyl)-piperidin-4-ylmethyl]-phenyl}-urea] |
| 10 to 500 | Cc1ccc(-n2nc(C(C)(C)C)cc2NC(=O)Nc2cccc(CC3CCN(C(=O)Cc4ccc(F)cc4F)CC3)c2)cc1 [Compound A26, 1-(5-tert-Butyl-2-p-tolyl-2H-pyrazol-3-yl)-3-(3-{1-[2-(2,4-difluoro-phenyl)-acetyl]-piperidin-4-ylmethyl}-phenyl)-urea] |
| 10 to 500 | Cc1ccc(-n2nc(C(C)(C)C)cc2NC(=O)Nc2cccc(CC3CCN(C(=O)c4cc(C)oc4C)CC3)c2)cc1 [Compound A29, 1-(5-tert-Butyl-2-p-tolyl-2H-pyrazol-3-yl)-3-{3-[1-(2,5-dimethyl-furan-3-carbonyl)-piperidin-4-ylmethyl]-phenyl}-urea] |
| 10 to 500 | Cc1ccc(-n2nc(C(C)(C)C)cc2NC(=O)Nc2cccc(CC3CCN(C(=O)c4cccnc4N)CC3)c2)cc1 [Compound A39, 1-{3-[1-(2-Amino-pyridine-3-carbonyl)-piperidin-4-ylmethyl]-phenyl}-3-(5-tert-butyl-2-p-tolyl-2H-pyrazol-3-yl)-urea] |
| 10 to 500 | Cc1ccc(-n2nc(C(C)(C)C)cc2NC(=O)Nc2cccc(CC3CCN(C(=O)c4ccc(S(C)(=O)=O)cc4Cl)CC3)c2)cc1 [Compound A40, 1-(5-tert-Butyl-2-p-tolyl-2H-pyrazol-3-yl)-3-{3-[1-(2-chloro-4-methanesulfonyl-benzoyl)-piperidin-4-ylmethyl]-phenyl}-urea] |
| 10 to 500 | Cc1ccc(-n2nc(C(C)(C)C)cc2NC(=O)Nc2cccc(CC3CCN(C(=O)c4ccco4)CC3)c2)cc1 [Compound A45, 1-(5-tert-Butyl-2-p-tolyl-2H-pyrazol-3-yl)-3-{3-[1-(furan-2-carbonyl)-piperidin-4-ylmethyl]-phenyl}-urea] |
| 10 to 500 | COc1ccccc1CC(=O)N1CCC(Cc2cccc(NC(=O)Nc3cc(C(C)(C)C)nn3-c3ccc(C)cc3)c2)CC1 [Compound A50, 1-(5-tert-Butyl-2-p-tolyl-2H-pyrazol-3-yl)-3-(3-{1-[2-(2-methoxy-phenyl)-acetyl]-piperidin-4-ylmethyl}-phenyl)-urea] |
| 10 to 500 | Cc1ccc(-n2nc(C(C)(C)C)cc2NC(=O)Nc2cccc(CC3CCN(C(=O)c4ccoc4C)CC3)c2)cc1 [Compound A52, 1-(5-tert-Butyl-2-p-tolyl-2H-pyrazol-3-yl)-3-{3-[1-(2-methyl-furan-3-carbonyl)-piperidin-4-ylmethyl]-phenyl}-urea] |
| 10 to 500 | Cc1ccc(-n2nc(C(C)(C)C)cc2NC(=O)Nc2cccc(CC3CCN(C(=O)c4cnccn4)CC3)c2)cc1 [Compound A64, 1-(5-tert-Butyl-2-p-tolyl-2H-pyrazol-3-yl)-3-{3-[1-(pyrazine-2-carbonyl)-piperidin-4-ylmethyl]-phenyl}-urea] |
| 10 to 500 | Cc1ccc(-n2nc(C(C)(C)C)cc2NC(=O)Nc2cccc(CC3CCN(C(=O)C4CCCO4)CC3)c2)cc1 (centres unmarked) [Compound A66, 1-(5-tert-Butyl-2-p-tolyl-2H-pyrazol-3-yl)-3-{3-[1-(tetrahydro-furan-2-carbonyl)-piperidin-4ylmethyl]-phenyl}-urea] |
| 10 to 500 | COc1ccc(CC(=O)N2CCC(Cc3cccc(NC(=O)Nc4cc(C(C)(C)C)nn4-c4ccc(C)cc4)c3)CC2)cc1OC [Compound A69, 1-(5-tert-Butyl-2-p-tolyl-2H-pyrazol-3-yl)-3-(3-{1-[2-(3,4-dimethoxy-phenyl)-acetyl]-piperidin-4-ylmethyl}-phenyl)-urea] |
| 10 to 500 | Cc1ccc(-n2nc(C(C)(C)C)cc2NC(=O)Nc2cccc(CC3CCN(C(=O)Cc4ccc5c(c4)OCO5)CC3)c2)cc1 [Compound A70, 1-{3-[1-(2-Benzo[1,3]dioxol-5-yl-acetyl)-piperidin-4-ylmethyl]-phenyl}-3-(5-tert-butyl-2-p-tolyl-2H-pyrazol-3-yl)-urea] |
| 10 to 500 | COc1cc(OC)cc(C(=O)N2CCC(Cc3cccc(NC(=O)Nc4cc(C(C)(C)C)nn4-c4ccc(C)cc4)c3)CC2)c1 [Compound A73, 1-(5-tert-Butyl-2-p-tolyl-2H-pyrazol-3-yl)-3-{3-[1-(3,5-dimethoxy-benzoyl)-piperidin-4-ylmethyl]-phenyl}-urea] |
| 10 to 500 | Cc1ccc(-n2nc(C(C)(C)C)cc2NC(=O)Nc2cccc(CC3CCN(C(=O)c4cccc(C(C)C#N)c4)CC3)c2)cc1 (centres unmarked) [Compound A79, 1-(5-tert-Butyl-2-p-tolyl-2H-pyrazol-3-yl)-3-(3-{1-[3-(cyano-methyl-methyl)-benzoyl]-piperidin-4-ylmethyl}-phenyl)-urea] |
| 10 to 500 | Cc1ccc(-n2nc(C(C)(C)C)cc2NC(=O)Nc2cccc(CC3CCN(C(=O)CCc4ccco4)CC3)c2)cc1 [Compound A81, 1-(5-tert-Butyl-2-p-tolyl-2H-pyrazol-3-yl)-3-{3-[1-(3-furan-2-yl-propionyl)-piperidin-4-ylmethyl]-phenyl}-urea] |
| 10 to 500 | COc1ccccc1CCC(=O)N1CCC(Cc2cccc(NC(=O)Nc3cc(C(C)(C)C)nn3-c3ccc(C)cc3)c2)CC1 [Compound A82, 1-(5-tert-Butyl-2-p-tolyl-2H-pyrazol-3-yl)-3-(3-{1-[3-(2-methoxy-phenyl)-propionyl]-piperidin-4-ylmethyl}-phenyl)-urea] |
| 10 to 500 | Cc1ccc(-n2nc(C(C)(C)C)cc2NC(=O)Nc2cccc(CC3CCN(C(=O)CCc4cccs4)CC3)c2)cc1 [Compound A83, 1-(5-tert-Butyl-2-p-tolyl-2H-pyrazol-3-yl)-3-{3-[1-(3-thiophen-2-yl-propionyl)-piperidin-4-ylmethyl]-phenyl}-urea] |
| 10 to 500 | Cc1ccc(-n2nc(C(C)(C)C)cc2NC(=O)Nc2cccc(CC3CCN(C(=O)c4ccoc4)CC3)c2)cc1 [Compound A92, 1-(5-tert-Butyl-2-p-tolyl-2H-pyrazol-3-yl)-3-{3-[1-(furan-3-carbonyl)-piperidin-4-ylmethyl]-phenyl}-urea] |
| 10 to 500 | Cc1ccc(-n2nc(C(C)(C)C)cc2NC(=O)Nc2cccc(CC3CCN(C(=O)c4occc4C)CC3)c2)cc1 [Compound A95, 1-(5-tert-Butyl-2-p-tolyl-2H-pyrazol-3-yl)-3-{3-[1-(3-methyl-furan-2-carbonyl)-piperidin-4-ylmethyl]-phenyl}-urea] |
